Results as given in US10030016B2 (Sunesis Pharmaceuticals, Inc., priority 2009, dated 2018).
Counter-ions that a name gives are not always drawn. Like-named read-outs stand apart in the source and are kept apart here.

Assays:
[1] = system: phospho-akt (Thr308) in PC-3 cells; test: Inhibition of phospho-akt (Thr308) in PC-3 cells, MSD phospho-akt 308 ELISA kit; type: cell-based; conditions: 2 hours, no serum, read-out: EC50
Procedure, shortened: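 PC-3 cells (15,000/well, overnight in 10% FBS medium) treated 2 h with three-fold diluted compounds in serum-free medium; DMSO high and 5 μM wortmannin low controls. Lysates captured on BSA-blocked MSD plates overnight at 4 °C, then 1 h antibody detection at RT; phospho-Akt Thr308 read by MSD electrochemiluminescence.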

[2] = biological target: PDK1 (Homo sapiens (Human), UniProt O15530); test: PDK1 kinase assay (coupled PDK1/AKT/FAM-crosstide assay, IMAP fluorescence polarization); type: biochemical
Procedure, shortened: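 GST-tagged PDK1 (aa 51-359, 0.75 nM) was coupled to unphosphorylated GST-AKT2 140-467-PIFtide (10 nM) and 100 nM FAM-crosstide at 40 μM ATP, in Tris pH 7.2 buffer, for 30 min at 25 °C. Crosstide phosphorylation was read by IMAP fluorescence polarization (ΔmP) and fitted with a 4-parameter curve.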

[3] = Homo sapiens, inhibition of P308 Akt in PC-3 cells, MSD
[4] = inhibition of phospo-PDK1 in vitro
[5] = Homo sapiens, PC-3, 2 h, inhibition of P308 Akt in PC-3 cells, MSD
[6] = Homo sapiens, inhibition of P308 Akt in PC-3 cells using MSD

Sequence of PDK1 (O15530 51-359): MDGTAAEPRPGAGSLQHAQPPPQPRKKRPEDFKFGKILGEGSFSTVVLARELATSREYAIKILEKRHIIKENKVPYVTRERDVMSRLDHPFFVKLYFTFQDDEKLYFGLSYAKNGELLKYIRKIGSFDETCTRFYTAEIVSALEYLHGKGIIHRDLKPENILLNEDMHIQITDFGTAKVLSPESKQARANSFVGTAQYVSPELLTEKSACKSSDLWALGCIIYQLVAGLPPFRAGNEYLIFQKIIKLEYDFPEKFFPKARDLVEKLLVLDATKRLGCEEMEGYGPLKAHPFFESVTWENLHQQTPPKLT

EC50 [1, 3] | IC50 [2, 4] | EC50 [1, 6] | IC50 ([2]; inhibition of PDK1 in vitro) | Compound | other results
> 10000 nM | < 100 nM | – | – | Nc1ncnc2ccc(-c3ccc(CNc4nccnc4C(=O)NCc4ccc(F)cc4F)s3)cc12 [Example 3.75, 3-({[5-(4-aminoquinazolin-6-yl)thiophen-2-yl]methyl}amino)-N-(2,4-difluorobenzyl)pyrazine-2-carboxamide (TFA salt)] | –
– | 1000 to 5000 nM | – | – | COc1ccc([C@H](COc2ccc3[nH]c(=O)[nH]c3c2)Nc2ncccc2C(=O)N[C@@H](C)c2ccc(F)c(F)c2)cc1 [Example 16.8, N-((S)-1-(3,4-difluorophenyl)ethyl)-2-(((R)-1-(4-methoxyphenyl)-2-(2-oxo-2,3-dihydro-1H-benzo[d]imidazol-5-yloxy)ethyl)amino)nicotinamide] | EC50 [1, 5]: > 10000 nM
> 10000 nM | 1000 to 5000 nM | – | – | O=C(NCc1ccc(C(F)(F)F)cc1)c1cccnc1NCc1cccc(-c2c[nH]c3ncccc23)c1 [Example 1.7, 2-(3-(1H-pyrrolo[2,3-b]pyridin-3-yl)benzylamino)-N-(4-(trifluoromethyl)benzyl) nicotinamide] | –
– | 100 to 1000 nM | – | – | N#Cc1ccc(NC(=O)c2cccnc2NCc2ccc(-c3ccc4ncnc(N)c4c3)s2)cc1 [Example 3.33, 2-({[5-(4-aminoquinazolin-6-yl)thiophen-2-yl]methyl}amino)-N-(4-cyanophenyl)pyridine-3-carboxamide (TFA salt)] | EC50 [1, 5]: > 10000 nM
< 1000 nM | < 100 nM | – | – | C[C@H](NC(=O)c1nc(C#N)cnc1NCc1ccc(-c2cnc3[nH]nc(N)c3c2)cc1)c1ccc(F)cc1 [Example 32, (S)-3-(4-(3-amino-1H-pyrazolo[3,4-b]pyridin-5-yl)benzylamino)-6-cyano-N-(1-(4-fluorophenyl)ethyl) pyrazine-2-carboxamide] | –
– | – | < 1000 nM | < 100 nM | Nc1ncc(-c2ccc(CNc3ncc(C(F)(F)F)cc3C(=O)Nc3ccc(F)cc3)cc2)nc1O[C@@H]1CCNC1 [Example 159, 2-{4-[5-Amino-6-((R)-pyrrolidin-3-yloxy)-pyrazin-2-yl]-benzylamino}-N-(4-fluoro-phenyl)-5-trifluoromethyl-nicotinamide] | –
< 1000 nM | 100 to 1000 nM | – | – | CS(=O)(=O)c1cnc(NCc2ccc(-c3ccc4ncnc(N)c4c3)s2)c(C(=O)NCc2ccc(F)c(F)c2)c1 [Example 8.7.8] | –
– | – | > 10000 nM | < 100 nM | CC(C)Oc1cc(CNc2ncccc2C(=O)NCc2ccc(F)c(F)c2)cc(-c2c[nH]c3ncc(-c4ccc[nH]4)cc23)c1 [Example 335, 2-(3-(5-(1H-pyrrol-2-yl)-1H-pyrrolo[2,3-b]pyridin-3-yl)-5-isopropoxybenzylamino)-N-(3,4-difluorobenzyl) nicotinamide] | –
– | – | 1000 to 10000 nM | < 100 nM | C[C@H](NC(=O)c1nc(C#N)cnc1NCc1ccc(-c2ccc(N)nn2)cc1)c1ccc(F)c(F)c1 [Example 409, (S)-3-(4-(6-aminopyridazin-3-yl)benzylamino)-6-cyano-N-(1-(3,4-difluorophenyl)ethyl)pyrazine-2-carboxamide] | –
– | – | 1000 to 10000 nM | 100 to 1000 nM | C[C@H](NC(=O)c1cc(C#N)cnc1NCc1ccc(-c2ccc(NCCO)nc2)cc1)c1ccc(F)cc1 [Example 222, 5-Cyano-N-[(S)-1-(4-fluoro-phenyl)-ethyl]-2-{4-[6-(2-hydroxy-ethylamino)-pyridin-3-yl]-benzylamino}-nicotinamide] | –
– | – | < 1000 nM | < 100 nM | C[C@H](NC(=O)c1cc(C#N)cnc1NCc1ccc(-c2cnc(N)c(CCC(C)(C)N)n2)cc1)c1ccc(F)cc1 [Example 82, 2-{4-[5-Amino-6-(3-amino-3-methyl-butyl)-pyrazin-2-yl]-benzylamino}-5-cyano-N-[(S)-1-(4-fluoro-phenyl)-ethyl]-nicotinamide] | –
– | – | 1000 to 10000 nM | < 100 nM | N#Cc1cnc(NCc2ccc(-c3ccc(N)nc3)cc2)c(C(=O)NCc2ccc(F)c(F)c2)n1 [Example 372, 3-(4-(6-aminopyridin-3-yl)benzylamino)-6-cyano-N-(3,4-difluorobenzyl)pyrazine-2-carboxamide] | –
– | – | 1000 to 10000 nM | 1000 to 5000 nM | C[C@H](NC(=O)c1nc(C#N)cnc1NCc1ccc(-c2cnc3c(c2)c(N)nn3C)cc1)c1ccc(F)c(F)c1 [Example 414, (S)-3-(4-(3-amino-1-methyl-1H-pyrazolo[3,4-b]pyridin-5-yl)benzylamino)-6-cyano-N-(1-(3,4-difluorophenyl)ethyl) pyrazine-2-carboxamide] | –
1000 to 10000 nM | < 100 nM | – | – | CC(C)Oc1cc(CNc2ncccc2C(=O)NCc2cccc(F)c2)cc(-c2c[nH]c3ncc(C(=O)NC4CC4)cc23)c1 [Example 4.1.4, N-cyclopropyl-3-{3-[({3-[(3-fluorobenzyl)carbamoyl]pyridin-2-yl}amino)methyl]-5-(propan-2-yloxy)phenyl}-1H-pyrrolo [2,3-b]pyridine-5-carboxamide] | –
– | – | 1000 to 10000 nM | < 100 nM | COc1cccc(NC(=O)c2cc(C(F)(F)F)cnc2NCc2ccc(-c3cnc4[nH]nc(N)c4c3)cc2)c1 [Example 301, 2-(4-(3-amino-1H-pyrazolo [3,4-b]pyridin-5-yl)benzylamino)-N-(3-methoxyphenyl)-5-(trifluoromethyl)nicotinamide] | –
1000 to 10000 nM | 1000 to 5000 nM | – | – | Nc1ncnc2ccc(-c3ccc(CNc4ncc(NS(=O)(=O)Cc5ccccc5)cc4C(=O)NCc4ccc(F)c(F)c4)s3)cc12 [Example 8.6.6, 2-({[5-(4-aminoquinazolin-6-yl)thiophen-2-yl]methyl}amino)-5-[(benzylsulfonyl)amino]-N-(3,4-difluorobenzyl) pyridine-3-carboxamide] | –
1000 to 10000 nM | 1000 to 5000 nM | – | – | Nc1ncnc2ccc(-c3ccc(CNc4ncccc4C(=O)Nc4ccc(F)c(C(F)(F)F)c4)s3)cc12 [Example 3.51, 2-({[5-(4-aminoquinazolin-6-yl)thiophen-2-yl]methyl}amino)-N-[4-fluoro-3-(trifluoromethyl)phenyl]pyridine-3-carboxamide (TFA salt)] | –
> 10000 nM | < 100 nM | – | – | Nc1ncnc2ccc(-c3ncc(CNc4ncccc4C(=O)NCc4ccc(F)c(F)c4)s3)cc12 [Ex. 6.6, 2-({[2-(4-aminoquinazolin-6-yl)-1,3-thiazol-5-yl]methyl}amino)-N-(3,4-difluoro-benzyl) pyridine-3-carboxamide] | –
– | – | 1000 to 10000 nM | < 100 nM | C[C@H](NC(=O)c1cc(C(F)(F)F)cnc1NCc1ccc(-c2cnc3[nH]nc(N)c3c2)cc1)c1ccc(Br)cc1 [Example 282, (S)-2-(4-(3-amino-1H-pyrazolo [3,4-b]pyridin-5-yl)benzylamino)-N-(1-(4-bromophenyl)ethyl)-5-(trifluoromethyl)nicotinamide] | –
– | – | 1000 to 10000 nM | < 100 nM | C[C@H](NC(=O)c1nc(C#N)cnc1NCc1ccc(-c2cnc(N)c(CC[C@@H]3CCCN3)n2)cc1)c1ccc(F)c(F)c1 [Example 78, 3-{4-[5-Amino-6-((S)-2-pyrrolidin-2-yl-ethyl)-pyrazin-2-yl]-benzylamino}-6-cyano-pyrazine-2-carboxylic acid [(S)-1-(3,4-difluoro-phenyl)-ethyl]-amide] | –
– | – | < 1000 nM | < 100 nM | C[C@H](NC(=O)c1nc(C#N)cnc1NCc1ccc(-c2cnc(N)cn2)cc1)c1ccc(F)c(F)c1 [Example 376, (S)-3-(4-(5-aminopyrazin-2-yl)benzylamino)-6-cyano-N-(1-(3,4-difluorophenyl)ethyl)pyrazine-2-carboxamide] | –
– | – | 1000 to 10000 nM | > 5000 nM | C[C@H](NC(=O)c1cc(C#N)cnc1NCc1ccc(-c2ccnc(N)n2)cc1)c1ccc(F)cc1 [Example 117, (S)-2-(4-(2-amino-pyrimidin-4-yl)benzylamino)-5-cyano-N-(1-(4-fluorophenyl)ethyl) nicotinamide] | –
< 1000 nM | < 100 nM | – | – | O=C1Nc2cc(/C=C/CNc3ncccc3C(=O)NCc3ccc(F)cc3)ccc2/C1=C/c1cnc[nH]1 [Example 15.21, 2-((E)-3-((Z)-3-((1H-imidazol-5-yl)methylene)-2-oxoindolin-6-yl)allylamino)-N-(4-fluorobenzyl)nicotinamide] | –
> 10000 nM | 1000 to 5000 nM | – | – | CC(C)(C)Nc1ncnc2ccc(-c3ccc(CNc4ncccc4C(=O)NCc4ccc(F)c(F)c4)s3)cc12 [Example 4.23, N-(3,4-difluorobenzyl)-2-(((5-(4-(tert-butylamino)quinazolin-6-yl)thiophen-2-yl)methyl)amino) nicotinamide] | –
– | – | 1000 to 10000 nM | < 100 nM | COC(=O)c1cc(-c2ccc(CNc3ncc(C#N)cc3C(=O)N[C@@H](C)c3ccc(F)cc3)cc2)cnc1N [Example 103, (S)-methyl 2-amino-5-(4-((5-cyano-3-(1-(4-fluorophenyl)ethylcarbamoyl)pyridin-2-ylamino)methyl)phenyl)nicotinate] | –

Compound | EC50 [1, 3] | IC50 [2, 4] | EC50 [1, 6] | IC50 ([2]; inhibition of PDK1 in vitro) | other results
C[C@H](NC(=O)c1cc(S(=O)(=O)N(C)C)cnc1NCc1ccc(-c2ccc3ncnc(N)c3c2)s1)c1ccc(F)c(F)c1 [Example 8.7.6, 2-({[5-(4-aminoquinazolin-6-yl)thiophen-2-yl]methyl}amino)-N-[(1S)-1-(3,4-difluorophenyl)ethyl]-5-(dimethylsulfamoyl) pyridine-3-carboxamide] | – | < 100 nM | – | – | EC50 ([1]; inhibition of P308 Akt in PC-3 cells, MSD): < 1000 nM
